Test results as given in US20260138976A1 (Hoffmann-La Roche Inc., priority 2022, published 2026).

System: primary human T-cells
Assay: Proliferation assay (5 days, CellTiter-Glo, CD3-stimulated T-cells)
Format: cell-based
Conditions: for Emax proliferation (% activation): CD3 condition, normalised to DMSO (neutral) and 20 μM reference compound A1 = 100%; for EC50: Homo sapiens, T-cell, 120 h, CD3-stimulated primary human T-cells, 5 days, CellTiter-Glo, fitted sigmoidal curve, read-out: Tcell Proliferation CD3 EC50
How it was run: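 Expanded primary human T-cells, 100 k cells/well, were stimulated with plate-coated CD3 antibody (donor-titrated) and given compound in a 5 or 6 pt dose response from 20 μM or 10 μM final top, 0.2% DMSO final. ATP was read by CellTiter-Glo after 5 days. EC50 and Emax were reported as % of 20 μM reference compound A1.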

| Structure (SMILES) | Emax proliferation (% activation) | EC50 |
| --- | --- | --- |
| N[C@H]1CS(=O)(=O)c2ccc(-c3noc(-c4cccnc4Cl)n3)cc2N(Cc2ccc(-c3noc(C4CC4)n3)cc2)C1=O [Example 85, (3R)-3-amino-7-[5-(2-chloro-3-pyridyl)-1,2,4-oxadiazol-3-yl]-5-[[4-(5-cyclopropyl-1,2,4-oxadiazol-3-yl)phenyl]methyl]-1,1-dioxo-2,3-dihydro-1λ^6,5-benzothiazepin-4-one] | 62 % activation | 8170 nM |
| N[C@H]1CS(=O)(=O)c2ccc(-c3nnc(N4CCOC(C(F)(F)F)C4)o3)cc2N(Cc2ccc(-c3ccc(C(F)(F)F)cn3)cc2)C1=O (stereo partly drawn) [Example 75, (3R)-3-amino-1,1-dioxo-7-[5-[2-(trifluoromethyl)morpholin-4-yl]-1,3,4-oxadiazol-2-yl]-5-[[4-[5-(trifluoromethyl)-2-pyridyl]phenyl]methyl]-2,3-dihydro-1λ^6,5-benzothiazepin-4-one] | 115 % activation | 1200 nM |
| CC1(Nc2nnc(-c3ccc4c(c3)N(Cc3ccc(-c5noc(C(F)(F)F)n5)cc3)C(=O)[C@@H](N)CS4(=O)=O)o2)CC(F)(F)C1 [Example 72, (3R)-3-amino-7-[5-[(3,3-difluoro-1-methyl-cyclobutyl)amino]-1,3,4-oxadiazol-2-yl]-1,1-dioxo-5-[[4-[5-(trifluoromethyl)-1,2,4-oxadiazol-3-yl]phenyl]methyl]-2,3-dihydro-1λ^6,5-benzothiazepin-4-one] | 252 % activation | 1650 nM |
| CC(C)(C)c1nnc(-c2ccc3c(c2)N(Cc2ccc(-c4nc(C(F)(F)F)co4)cc2)C(=O)[C@@H](N)CS3(=O)=O)o1 [Example 89, (3R)-3-amino-7-(5-tert-butyl-1,3,4-oxadiazol-2-yl)-1,1-dioxo-5-[[4-[4-(trifluoromethyl)oxazol-2-yl]phenyl]methyl]-2,3-dihydro-1λ^6,5-benzothiazepin-4-one] | 153 % activation | 203 nM |
| COCC1CN(c2nnc(-c3ccc4c(c3)N(Cc3ccc(-c5noc(C(F)(F)F)n5)cc3)C(=O)[C@@H](N)CS4(=O)=O)o2)CCO1 (stereo partly drawn) [Example 164, (3R)-3-amino-7-[5-[2-(methoxymethyl)morpholin-4-yl]-1,3,4-oxadiazol-2-yl]-1,1-dioxo-5-[[4-[5-(trifluoromethyl)-1,2,4-oxadiazol-3-yl]phenyl]methyl]-2,3-dihydro-1λ^6,5-benzothiazepin-4-one] | 86 % activation | 390 nM |
| CCC(O)(c1nnc(-c2ccc3c(c2)N(Cc2ccc(-c4noc(C5CC5)n4)cc2)C(=O)[C@@H](N)CS3(=O)=O)o1)C(F)(F)F (stereo partly shown) [Example 169] | 106 % activation | 833 nM |
| COC(F)(c1nnc(-c2ccc3c(c2)N(Cc2ccc(-c4nnc(C5CC5)o4)cc2)C(=O)[C@@H](N)CS3(=O)=O)o1)C(F)(F)F (stereo partly shown) [Example 65] | 102 % activation | 681 nM |
| Cc1noc(-c2ccc(CN3C(=O)[C@@H](N)CS(=O)(=O)c4cc(F)c(-c5nnc(C(C)(C)C)o5)cc43)cc2)n1 [Example 2] | 143 % activation | 296 nM |
| COc1ccc(-c2ccc(CN3C(=O)[C@@H](N)CS(=O)(=O)c4ccc(-c5nnc(N6CCC(F)(F)C6)o5)cc43)cc2)cc1 [Example 76, (3R)-3-amino-7-[5-(3,3-difluoropyrrolidin-1-yl)-1,3,4-oxadiazol-2-yl]-5-[[4-(4-methoxyphenyl)phenyl]methyl]-1,1-dioxo-2,3-dihydro-1λ^6,5-benzothiazepin-4-one] | 263 % activation | 1360 nM |
| CC(C)(C#N)c1nnc(-c2ccc3c(c2)N(Cc2ccc(-c4ccc(C(F)(F)F)cc4)cc2)C(=O)[C@@H](N)CS3(=O)=O)o1 [Example 46] | 94 % activation | 116 nM |
| Cn1ccc(-c2ccc(CN3C(=O)[C@@H](N)CS(=O)(=O)c4cc(F)c(-c5nnc(C(C)(C)C)o5)cc43)cc2)n1 [Example 1, (3R)-3-amino-7-(5-tert-butyl-1,3,4-oxadiazol-2-yl)-8-fluoro-5-[[4-(1-methylpyrazol-3-yl)phenyl]methyl]-1,1-dioxo-2,3-dihydro-1λ^6,5-benzothiazepin-4-one] | 73 % activation | 843 nM |
| Cc1nc(F)ccc1-c1nc(-c2ccc3c(c2)N(Cc2ccc(-c4noc(C5CC5)n4)cc2)C(=O)[C@@H](N)CS3(=O)=O)no1 [Example 86, (3R)-3-amino-5-[[4-(5-cyclopropyl-1,2,4-oxadiazol-3-yl)phenyl]methyl]-7-[5-(6-fluoro-2-methyl-3-pyridyl)-1,2,4-oxadiazol-3-yl]-1,1-dioxo-2,3-dihydro-1λ^6,5-benzothiazepin-4-one] | 99 % activation | 1660 nM |
| N[C@H]1CS(=O)(=O)c2ccc(-c3nnc(N4CCOC5(CC5)C4)o3)cc2N(Cc2ccc(-c3noc(C(F)(F)F)n3)cc2)C1=O [Example 77] | 58 % activation | 3920 nM |
| CC1(c2nnc(-c3ccc4c(c3)N(Cc3ccc(-c5ccc(C(F)(F)F)cn5)cc3)C(=O)[C@@H](N)CS4(=O)=O)o2)COC1 [Example 150, (3R)-3-amino-7-[5-(3-methyloxetan-3-yl)-1,3,4-oxadiazol-2-yl]-1,1-dioxo-5-[[4-[5-(trifluoromethyl)-2-pyridyl]phenyl]methyl]-2,3-dihydro-1λ^6,5-benzothiazepin-4-one] | 79 % activation | 656 nM |
| CC(C)(c1nnc(-c2ccc3c(c2)N(Cc2ccc(-c4noc(C5CC5)n4)cc2)C(=O)[C@@H](N)CS3(=O)=O)o1)C(F)(F)F [Example 167, (3R)-3-amino-5-[[4-(5-cyclopropyl-1,2,4-oxadiazol-3-yl)phenyl]methyl]-1,1-dioxo-7-[5-(2,2,2-trifluoro-1,1-dimethyl-ethyl)-1,3,4-oxadiazol-2-yl]-2,3-dihydro-1λ^6,5-benzothiazepin-4-one] | 186 % activation | 629 nM |
| N[C@H]1CS(=O)(=O)c2ccc(-c3nnc(N4CCC(F)(F)CC4)o3)cc2N(Cc2ccc(-c3nc(C(F)(F)F)no3)cc2)C1=O [Example 161, (3R)-3-amino-7-[5-(4,4-difluoro-1-piperidyl)-1,3,4-oxadiazol-2-yl]-1,1-dioxo-5-[[4-[3-(trifluoromethyl)-1,2,4-oxadiazol-5-yl]phenyl]methyl]-2,3-dihydro-1λ^6,5-benzothiazepin-4-one] | 178 % activation | 327 nM |
| COc1ccc(-c2ccc(CN3C(=O)[C@@H](N)CS(=O)(=O)c4ccc(-c5nnc(N6CCOC(F)(F)C6)o5)cc43)cc2)cc1 [Example 79, (3R)-3-amino-7-[5-(2,2-difluoromorpholin-4-yl)-1,3,4-oxadiazol-2-yl]-5-[[4-(4-methoxyphenyl)phenyl]methyl]-1,1-dioxo-2,3-dihydro-1λ^6,5-benzothiazepin-4-one] | 167 % activation | 989 nM |
| CC(C)(C)c1nc(-c2cc3c(cc2F)S(=O)(=O)C[C@H](N)C(=O)N3Cc2ccc(-c3ccc(CO)cc3)nc2)no1 [Example 7, (3R)-3-amino-7-(5-tert-butyl-1,2,4-oxadiazol-3-yl)-8-fluoro-5-[[6-[4-(hydroxymethyl)phenyl]-3-pyridyl]methyl]-1,1-dioxo-2,3-dihydro-1λ^6,5-benzothiazepin-4-one] | 97 % activation | 3520 nM |
| N[C@H]1CS(=O)(=O)c2ccc(-c3nnc(N4CCC(F)(F)CC4)o3)cc2N(Cc2ccc(-c3nnc(C(F)(F)F)o3)cc2)C1=O [Example 71, (3R)-3-amino-7-[5-(4,4-difluoro-1-piperidyl)-1,3,4-oxadiazol-2-yl]-1,1-dioxo-5-[[4-[5-(trifluoromethyl)-1,3,4-oxadiazol-2-yl]phenyl]methyl]-2,3-dihydro-1λ^6,5-benzothiazepin-4-one] | 129 % activation | 2870 nM |
| Cn1ccc(-c2ccc(CN3C(=O)[C@@H](N)CS(=O)(=O)c4ccc(-c5nnc(C(C)(C)C)o5)cc43)cc2)n1 [Example 21] | 63 % activation | 7060 nM |
| COCCN1CC(c2nnc(-c3ccc4c(c3)N(Cc3ccc(-c5noc(C(F)(F)F)n5)cc3)C(=O)[C@@H](N)CS4(=O)=O)o2)CC(F)(F)C1 (stereo partly drawn) [Example 182, (3R)-3-amino-7-[5-[5,5-difluoro-1-(2-methoxyethyl)-3-piperidyl]-1,3,4-oxadiazol-2-yl]-1,1-dioxo-5-[[4-[5-(trifluoromethyl)-1,2,4-oxadiazol-3-yl]phenyl]methyl]-2,3-dihydro-1λ^6,5-benzothiazepin-4-one] | 175 % activation | 1270 nM |
| CC(N)(c1nnc(-c2ccc3c(c2)N(Cc2ccc(-c4noc(CC(F)(F)F)n4)cc2)C(=O)[C@@H](N)CS3(=O)=O)o1)C(F)(F)F (stereo partly drawn) [Example 33, (3R)-3-amino-7-[5-(1-amino-2,2,2-trifluoro-1-methyl-ethyl)-1,3,4-oxadiazol-2-yl]-1,1-dioxo-5-[[4-[5-(2,2,2-trifluoroethyl)-1,2,4-oxadiazol-3-yl]phenyl]methyl]-2,3-dihydro-1λ^6,5-benzothiazepin-4-one] | 105 % activation | 3190 nM |
| CCN1CC(c2nnc(-c3ccc4c(c3)N(Cc3ccc(-c5noc(C(C)(C)C)n5)cc3)C(=O)[C@@H](N)CS4(=O)=O)o2)CC(F)(F)C1 (stereo partly drawn) [Example 181, (3R)-3-amino-5-[[4-(5-tert-butyl-1,2,4-oxadiazol-3-yl)phenyl]methyl]-7-[5-(1-ethyl-5,5-difluoro-3-piperidyl)-1,3,4-oxadiazol-2-yl]-1,1-dioxo-2,3-dihydro-1λ^6,5-benzothiazepin-4-one] | 105 % activation | 718 nM |
